What was measured:
[1] = system: Src-TQ/YF expressing cell line ZM170.21; assay: Suppression of tet-induced phenotype changes (cell scattering) in suspension, Ultra Low Attachment plates; assay type: cell-based, human; details: ZM170.21 (Src-TQ/YF) in suspension, Ultralow Attachment Plates
Method: (§1) Cells were seeded into 24-well or 96-well "Ultra Low Attachment" plates (cat.no.: 3473, Costar Corning Corp., Acton, MA, USA). These plates are coated with a covalently bound hydrogel layer that prevents cellular attachment to the polystyrene surface of the wells. As the cells were not attached to these wells, a medium change was impossible here. However, the phenotypes were tested in full serum-containing medium in the absence or presence of EGF, PDGF-BB or HGF as detailed above. Tet-induction was also started the day after seeding.
(§2) Largely irrespective of the cell numbers per well, the cells of all cell lines were in suspension and formed one or few very condensed/compact, opaque, rod-, disc- or kidney-shaped aggregates with a smooth surface, in which individual cells could not be discerned. Phenotype changes became apparent ~24 h after tet induction in ZM77 and ZM170 cell lines only, and Δpt(-tet →+tet)max was reached after ~2 days. In these cell lines Src-YF or Src-TQ/YF expression, respectively, induces scattering of the cells. Many cells are floating in the medium individually or in small clusters and the remaining large aggregate(s) are irregular-shaped and rather loose than compact; individual cells can easily be discerned and thus, the surfaces of these aggregates are rough as with bunches of grapes (Fig.14a,b). This biological response was readily observed with or without any of the above growth factors, wherefore normal growth medium without any additional growth factor was subsequently used in this assay type.
(§3) To that end, the test compounds PP1-Chr., SU6656 and PP2 were individually added to the cells together with tet, and the development of the phenotype changes in the presence of these compounds was monitored subsequently in direct comparison with tet-induced cells that received no compound (Fig.14c-j). The compounds were also added to the cells without tet-induction of Src/ Src mutant expression as controls for non-specific/ toxicity effects. The experiments were performed with several ZM77 cell lines.

[2] = system: Src-YF expressing ZM77 cell lines; assay: as above; assay type: cell-based, human; details: Ultralow Attachment Plates
Method: as §1, §2, §3

[3] = system: Src-TQ/YF expressing cell line ZM170.21; assay: CTB and ATP cell viability/metabolic activity assays, suppression of tet-induced reduction; assay type: cell-based, human; details: ZM170.21 (Src-TQ/YF), 5µM PP2 + 10µM PP1-Chr., 40µM D5, 1µM 17-AAG, 1µM radicicol
Description: (§4) To proof the concept of the assay platform according to the invention in a quantitative manner with a highly parallel readout, the following cell viability / metabolic activity assays from Promega according to the manufacturer's protocols: "CellTiter 96 AQueous One Solution Cell Proliferation Assay (MTS)", CellTiter-BlueTM Cell Viability Assay (CTB), and the ATP-status assay "CellTiter-Glo Luminescent Cell Viability Assay" (ATP) were used to obtain quantitative values reflecting (aspects of) the phenotype changes. The cells were seeded into white-walled/ clear bottom 96-well plates ["MICROTEST" by Falcon, cat.no. 353947] for MTS and ATP assays and in black-walled/ clear bottom 96-well plates ["MICROTEST" by Falcon, cat.no. 353948] for the CTB assay at the appropriate densities. Tet and/or compound addition (where applicable) was started the next day. Measurements were taken 1,2 and 3 days later using the Wallac Victor^2TM multilabel plate reader (Perkin Elmer). Absorbance was measured at 490nm (MTS). Luminescence mode was used for the ATP assay. For CTB fluorescence excitation wavelength was 550nm (filter: 550(20)nm), emission wavelength was 590 nm (filter: 590(20)nm). Indicated are the means of sixplicate determinations (from 6 independent wells) in the absence of tet (mean(-tet)) and in the presence of tet (mean(+tet)), followed by the respective corresponding standard deviations SD(-tet) and SD(+tet). The cell viability/ metabolic activity upon tet-induction in relation to the cell viability/ metabolic activity without tet ("+/tet(means") is calculated from the quotient of the means of the measured cell viability/ metabolic activity signals from i) cells incubated without tet and ii) cells incubated with tet. […] Furthermore indicated are the corresponding Z' values. In the present context: Z'=1-(3(SD(+tet)+SD(-tet))/ |mean(+tet)-mean(-tet)|. […] SD=0) (Zhang et al., 1999). Z'≥0 is required for an assay useful for a screening approach; a Z'≥0.5 is considered excellent for an assay with regard to high throughput screening. […] Three more parameters reflecting the effects of compounds on cell viability/metabolic activity in these assays are indicated in Tab.3 and Tab.4: Toxicity reflects the nonspecific (i.e. irrespective of tet-induced Src/ Src mutant expression) effects of a compound on the viability/ metabolic activity of the cells. It is calculated as toxicity=1-mean(-tet, compound)/mean(-tet,(DMSO)). […] The suppression value quantifies the potency of a compound with respect to suppression of the tet-induced change in cell viability / metabolic activity. Usually, tet-induction reduces cell viability / metabolic activity due to Src activity and addition of a Src inhibitory compound mitigates this reduction. A suppression of 100% means that the compound totally suppresses the tet-induced decrease in cell viability / metabolic activity (as in the absence of tet). The following formula is employed: Suppres-sion=([…]). Finally, the corresponding Z' value is calculated as follows: Z'(suppression)=1- 3([…]). The factor Qtox corrects the means and SD determined in the absence of a compound for the (nonspecific) toxicity effect of the respective compound, which would otherwise overlay and obscure the specific suppression, if toxicity is not neglectable. […] On each day 4 measurements are taken (1, 2, 3 and 4 h after the addition of the CTB assay reagents). […]

[4] = system: Src-YF expressing cell line ZM77.8; assay: as above; assay type: cell-based, human; details: ZM77.8 (Src-YF), 5µM PP2 + 10µM PP1-Chr., 40µM D5, 1µM 17-AAG, 1µM radicicol
Description: as §4

Abl-TQ = details: cited from earlier work
[5] = system: Src family kinases when they carry the respective TQ mutations; details: cited from earlier work
[6] = system: cell line ZM76.3 (Src-KA); assay: CTB cell viability assay, suppression of tet-induced reduction; assay type: cell-based, human; details: ZM76.3, CTB assay
Description: To proof the concept of the assay platform according to the invention in a quantitative manner with a highly parallel readout, the following cell viability / metabolic activity assays from Promega according to the manufacturer's protocols: "CellTiter 96 AQueous One Solution Cell Proliferation Assay (MTS)", CellTiter-BlueTM Cell Viability Assay (CTB), and the ATP-status assay "CellTiter-Glo Luminescent Cell Viability Assay" (ATP) were used to obtain quantitative values reflecting (aspects of) the phenotype changes. The cells were seeded into white-walled/ clear bottom 96-well plates ["MICROTEST" by Falcon, cat.no. […] Measurements were taken 1,2 and 3 days later using the Wallac Victor^2TM multilabel plate reader (Perkin Elmer). Absorbance was measured at 490nm (MTS). Luminescence mode was used for the ATP assay. For CTB fluorescence excitation wavelength was 550nm (filter: 550(20)nm), emission wavelength was 590 nm (filter: 590(20)nm). […] The cell viability/ metabolic activity upon tet-induction in relation to the cell viability/ metabolic activity without tet ("+/tet(means") is calculated from the quotient of the means of the measured cell viability/ metabolic activity signals from i) cells incubated without tet and ii) cells incubated with tet. […] It is calculated as toxicity=1-mean(-tet, compound)/mean(-tet,(DMSO)). […]

[7] = system: Src-YF expressing ZM77 cell lines; assay: Suppression of tet-induced phenotype changes, evaluated by eye/microscope, normal cell culture plates; assay type: cell-based, human; details: adherent, serum-containing medium
Method: Phenotype changes -tet → +tet were evaluated in 24-well plates (Nunc; cat.no. 143982) under the following several different growth conditions to identify the strongest possible response (Δpt(-tet→+tet)max) 1. full (10% serum containing) growth medium a) without any growth factor supplement (-), b) with epidermal growth factor (EGF; 100ng/ml) (cat.no. 115, Research Diagnostics Inc. (RDI), Flanders, NJ, USA) or c) platelet derived growth factor type BB (PDGF-BB; 30ng/ml) (cat.no. 114b, RDI) or d) hepatocyte growth factor (HGF; 20ng/ml) (RDI, cat.no.300-010), or 2. serum-free medium a) - or b) +EGF or c) +PDGF or d) +HGF. In all cases, cells were first seeded into standard 24-well or 96-well plates (Nunc) in full growth medium. The cell number seeded per well was also varied to identify the most suitable cell densities producing Δpt(-tet→+tet)max. […]
To that end, the test compounds PP1-Chr., PP2 (cat.no. 529573, Calbiochem) and SU6656 (cat.no. 572635, Calbiochem) (see Fig.9p for chemical structures) were individually added to the cells together with tet, and the development of the phenotype changes in the presence of these compounds was monitored subsequently in direct comparison with cells that received no compound or only vehicle (0.2% DMSO) together with tet induction. […]

Compound | suppression of tet-induced phenotype (cell scattering) [1] | suppression of tet-induced phenotype changes (cell scattering) [2] | suppression of the +/-tet(means)-values [3] | suppression of the tet-induced reductions of the cell viability/ metabolic activity (+/-tet(means)-values) [4] | other results
C=CCNC1=C2C[C@@H](C)C[C@H](OC)[C@H](O)[C@@H](C)/C=C(\C)[C@H](OC(N)=O)[C@@H](OC)/C=C\C=C(/C)C(=O)NC(=CC1=O)C2=O [17-AAG] | suppress to a large extent | suppress to a large extent | equally effective | equally effective | 
Cc1ccc(NC(=O)c2ccc(CN3CCN(C)CC3)cc2)cc1Nc1nccc(-c2cccnc2)n1 [Gleevec®] |  |  |  |  | inhibition of Abl-TQ (Abl-TQ): does not inhibit
Cc1ccc(-c2nn(C(C)(C)C)c3ncnc(N)c23)cc1 [PP1] |  |  |  |  | inhibition of Src family kinases carrying the TQ mutations [5]: do not inhibit
C[C@@H]1C[C@H]2O[C@@H]2/C=C\C=C\C(=O)Cc2c(Cl)c(O)cc(O)c2C(=O)O1 [Radicicol, radicicol] | suppress to a large extent | suppress to a large extent | equally effective | equally effective | suppression of the Src-KA-induced phenotype [6]: effectively suppressing
CN(C)S(=O)(=O)c1ccc2c(c1)/C(=C/c1cc3c([nH]1)CCCC3)C(=O)N2 [SU6656] |  | partially suppressed |  |  | suppression of tet-induced phenotype changes [7]: partially suppressed

Reference: patent EP1541694A1, “Methods of identifying, selecting and/or characterizing compounds which modulate the activity of a Src family kinase” (Sirenade Pharmaceuticals AG, priority 2003, dated 2005)
